#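 Grown in 96-well plates, cells were treated for 48 hours with each compound at five concentrations. Insufficient inhibition: endpoint recorded as highest concentration tested. Abbreviation: GI50, concentration required for 50% inhibition of growth.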 Calls of active or inactive are those of the source. No stated cut-off is given here; in the data, active = GI50 up to about 1.1 µM and inactive = higher.
# Tests used:
# Experiment in all cases: inhibition of tumour cell growth, NCI panel, 48 h
# 786-0 = system: 786-0
# A498 = system: A498
# A549 = system: A549
# ACHN = system: ACHN
# CCRF-CEM = system: CCRF-CEM
# COLO 205 = system: COLO 205
# DLD-1 = system: DLD-1
# DMS-114 = system: DMS-114
# EKVX = system: EKVX
# HCT-116 = system: HCT-116
# HCT-15 = system: HCT-15
# HL-60 = system: HL-60
# HOP-18 = system: HOP-18
# HOP-62 = system: HOP-62
# HOP-92 = system: HOP-92
# HT-29 = system: HT-29
# IGROV-1 = system: IGROV-1
# K562 = system: K562
# KM-20L2 = system: KM-20L2
# KM12 = system: KM12
# LOX IMVI = system: LOX IMVI
# LXFL 529 = system: LXFL 529
# M14 = system: M14
# M19-MEL = system: M19-MEL
# MOLT-4 = system: MOLT-4
# Malme-3M = system: Malme-3M
# NCI-H226 = system: NCI-H226
# NCI-H23 = system: NCI-H23
# NCI-H460 = system: NCI-H460
# NCI-H522 = system: NCI-H522
# OVCAR-3 = system: OVCAR-3
# OVCAR-4 = system: OVCAR-4
# OVCAR-5 = system: OVCAR-5
# OVCAR-8 = system: OVCAR-8
# RPMI-8226 = system: RPMI-8226
# RXF 393 = system: RXF 393
# RXF 631 = system: RXF 631
# SF-268 = system: SF-268
# SF-295 = system: SF-295
# SF-539 = system: SF-539
# SK-MEL-28 = system: SK-MEL-28
# SK-MEL-2 = system: SK-MEL-2
# SK-MEL-5 = system: SK-MEL-5
# SK-OV-3 = system: SK-OV-3
# SN12C = system: SN12C
# SNB-19 = system: SNB-19
# SNB-78 = system: SNB-78
# SW-620 = system: SW-620
# U-251 = system: U-251
# UACC-257 = system: UACC-257
# UACC-62 = system: UACC-62
# UO-31 = system: UO-31
# XF498 = system: XF498
# CAKI-1 = system: CAKI-1
# HCC 2998 = system: HCC 2998
# SNB-75 = system: SNB-75
# SR = system: SR
# TK-10 = system: TK-10
smiles,measurement,setting,value
N#CC(C(=O)/C(=N\NC(N)=O)C(C#N)c1ccc(Cl)cc1)c1ccc(Cl)cc1 (centres undefined),GI50,786-0,> 100 µM (inactive)
same,GI50,A498,> 100 µM (inactive)
same,GI50,A549,> 100 µM (inactive)
same,GI50,ACHN,> 100 µM (inactive)
same,GI50,CCRF-CEM,> 100 µM (inactive)
same,GI50,COLO 205,> 100 µM (inactive)
same,GI50,DLD-1,> 100 µM (inactive)
same,GI50,DMS-114,> 100 µM (inactive)
same,GI50,EKVX,> 100 µM (inactive)
same,GI50,HCT-116,> 100 µM (inactive)
same,GI50,HCT-15,> 100 µM
same,GI50,HL-60,> 100 µM (inactive)
same,GI50,HOP-18,> 100 µM (inactive)
same,GI50,HOP-62,> 100 µM (inactive)
same,GI50,HOP-92,68.4 µM (inactive)
same,GI50,HT-29,> 100 µM (inactive)
same,GI50,IGROV-1,> 100 µM (inactive)
same,GI50,K562,> 100 µM (inactive)
same,GI50,KM-20L2,> 100 µM (inactive)
same,GI50,KM12,> 100 µM (inactive)
same,GI50,LOX IMVI,> 100 µM (inactive)
same,GI50,LXFL 529,> 100 µM (inactive)
same,GI50,M14,> 100 µM (inactive)
same,GI50,M19-MEL,> 100 µM (inactive)
same,GI50,MOLT-4,> 100 µM (inactive)
same,GI50,Malme-3M,> 100 µM (inactive)
same,GI50,NCI-H226,> 100 µM (inactive)
same,GI50,NCI-H23,> 100 µM (inactive)
same,GI50,NCI-H460,> 100 µM (inactive)
same,GI50,NCI-H522,> 100 µM (inactive)
same,GI50,OVCAR-3,> 100 µM (inactive)
same,GI50,OVCAR-4,> 100 µM (inactive)
same,GI50,OVCAR-5,> 100 µM (inactive)
same,GI50,OVCAR-8,> 100 µM (inactive)
same,GI50,RPMI-8226,> 100 µM (inactive)
same,GI50,RXF 393,> 100 µM (inactive)
same,GI50,RXF 631,> 100 µM (inactive)
same,GI50,SF-268,> 100 µM (inactive)
same,GI50,SF-295,> 100 µM (inactive)
same,GI50,SF-539,> 100 µM (inactive)
same,GI50,SK-MEL-28,> 100 µM (inactive)
same,GI50,SK-MEL-2,> 100 µM (inactive)
same,GI50,SK-MEL-5,> 100 µM (inactive)
same,GI50,SK-OV-3,> 100 µM (inactive)
same,GI50,SN12C,> 100 µM (inactive)
same,GI50,SNB-19,> 100 µM (inactive)
same,GI50,SNB-78,> 100 µM (inactive)
same,GI50,SW-620,> 100 µM (inactive)
same,GI50,U-251,> 100 µM (inactive)
same,GI50,UACC-257,> 100 µM (inactive)
same,GI50,UACC-62,> 100 µM (inactive)
same,GI50,UO-31,> 100 µM (inactive)
same,GI50,XF498,> 100 µM (inactive)
CN1CC[C@]2(C)c3ccc(O)cc3CC3CCCC1C32C (some centres undefined),GI50,786-0,> 100 µM (inactive)
same,GI50,A498,> 100 µM (inactive)
same,GI50,A549,> 100 µM (inactive)
same,GI50,ACHN,> 100 µM (inactive)
same,GI50,CAKI-1,> 100 µM (inactive)
same,GI50,CCRF-CEM,> 100 µM (inactive)
same,GI50,COLO 205,> 100 µM (inactive)
same,GI50,DLD-1,> 100 µM (inactive)
same,GI50,DMS-114,> 100 µM (inactive)
same,GI50,EKVX,> 100 µM (inactive)
same,GI50,HCC 2998,> 100 µM (inactive)
same,GI50,HCT-116,> 100 µM (inactive)
same,GI50,HCT-15,> 100 µM
same,GI50,HL-60,> 100 µM (inactive)
same,GI50,HOP-18,> 100 µM (inactive)
same,GI50,HOP-62,> 100 µM (inactive)
same,GI50,HOP-92,> 100 µM (inactive)
same,GI50,HT-29,> 100 µM (inactive)
same,GI50,IGROV-1,> 100 µM (inactive)
same,GI50,K562,> 100 µM (inactive)
same,GI50,KM-20L2,> 100 µM (inactive)
same,GI50,KM12,> 100 µM (inactive)
same,GI50,LOX IMVI,> 100 µM (inactive)
same,GI50,LXFL 529,> 100 µM (inactive)
same,GI50,M14,> 100 µM (inactive)
same,GI50,M19-MEL,> 100 µM (inactive)
same,GI50,MOLT-4,> 100 µM (inactive)
same,GI50,Malme-3M,> 100 µM (inactive)
same,GI50,NCI-H226,> 100 µM (inactive)
same,GI50,NCI-H23,> 100 µM (inactive)
same,GI50,NCI-H460,> 100 µM (inactive)
same,GI50,NCI-H522,> 100 µM (inactive)
same,GI50,OVCAR-3,> 100 µM (inactive)
same,GI50,OVCAR-5,> 100 µM (inactive)
same,GI50,OVCAR-8,> 100 µM (inactive)
same,GI50,RPMI-8226,> 100 µM (inactive)
same,GI50,RXF 393,> 100 µM (inactive)
same,GI50,RXF 631,> 100 µM (inactive)
same,GI50,SF-268,> 100 µM (inactive)
same,GI50,SF-295,> 100 µM (inactive)
same,GI50,SF-539,> 100 µM (inactive)
same,GI50,SK-MEL-28,> 100 µM (inactive)
same,GI50,SK-MEL-2,> 100 µM (inactive)
same,GI50,SK-MEL-5,> 100 µM (inactive)
same,GI50,SK-OV-3,> 100 µM (inactive)
same,GI50,SN12C,> 100 µM (inactive)
same,GI50,SNB-19,> 100 µM (inactive)
same,GI50,SNB-75,80.9 µM (inactive)
same,GI50,SNB-78,> 100 µM (inactive)
same,GI50,SR,> 100 µM (inactive)
same,GI50,TK-10,> 100 µM (inactive)
same,GI50,U-251,> 100 µM (inactive)
same,GI50,UACC-257,> 100 µM (inactive)
same,GI50,UACC-62,> 100 µM (inactive)
same,GI50,UO-31,92.3 µM (inactive)
same,GI50,XF498,> 100 µM (inactive)

# Source: ChEMBL document CHEMBL1201862, “PubChem BioAssay data set” (2004)
